Experimental data from ChEMBL document CHEMBL1201862, “PubChem BioAssay data set” (2004).
Calls of active or inactive are those of the source.

Experiments:
[1] = target: Heat shock protein HSP 90-alpha (Homo sapiens, UniProt P07900); assay type: functional, organism-based
[2] = target: T1, Ubiquitin-conjugating enzyme E2 N (Homo sapiens, UniProt P61088); assay type: functional
T1 sequence (P61088 whole entry): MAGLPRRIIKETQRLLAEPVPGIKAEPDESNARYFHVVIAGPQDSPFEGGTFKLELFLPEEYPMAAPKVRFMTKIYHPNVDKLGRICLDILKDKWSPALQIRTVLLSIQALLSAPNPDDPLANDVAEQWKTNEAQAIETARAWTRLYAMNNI

[3] = target: Delta-type opioid receptor (Homo sapiens, UniProt P41143); experiment: Counterscreen for agonists of heterodimerization of the mu 1 (OPRM1) and delta 1 (OPRD1) opioid receptors: Luminescence-based cell-based high throughput dose response assay to identify agonists of OPRD1 homodimerization. [Related pubchem assays (depositor defined):AID504326, AID504355, AID504692, AID504904, AID504905]; assay type: functional
Chain of Delta-type opioid receptor (P41143 whole entry): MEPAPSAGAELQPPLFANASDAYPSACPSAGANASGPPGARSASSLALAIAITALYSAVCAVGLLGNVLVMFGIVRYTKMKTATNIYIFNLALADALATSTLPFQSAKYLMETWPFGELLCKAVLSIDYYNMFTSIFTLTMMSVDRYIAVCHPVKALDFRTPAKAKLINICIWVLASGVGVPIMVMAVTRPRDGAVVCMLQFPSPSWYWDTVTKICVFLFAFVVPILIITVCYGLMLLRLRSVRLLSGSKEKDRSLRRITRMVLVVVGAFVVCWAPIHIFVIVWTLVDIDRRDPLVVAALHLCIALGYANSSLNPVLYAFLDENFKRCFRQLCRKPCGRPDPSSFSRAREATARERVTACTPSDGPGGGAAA

[4] = target: T2, Insulin-degrading enzyme (Homo sapiens, UniProt P14735); experiment: activators of recombinant IDE enzyme, dose response, counter-screen for IDE activator project, biochemical, fluorescence polarization (AID 588681)
T2 sequence (P14735 whole entry): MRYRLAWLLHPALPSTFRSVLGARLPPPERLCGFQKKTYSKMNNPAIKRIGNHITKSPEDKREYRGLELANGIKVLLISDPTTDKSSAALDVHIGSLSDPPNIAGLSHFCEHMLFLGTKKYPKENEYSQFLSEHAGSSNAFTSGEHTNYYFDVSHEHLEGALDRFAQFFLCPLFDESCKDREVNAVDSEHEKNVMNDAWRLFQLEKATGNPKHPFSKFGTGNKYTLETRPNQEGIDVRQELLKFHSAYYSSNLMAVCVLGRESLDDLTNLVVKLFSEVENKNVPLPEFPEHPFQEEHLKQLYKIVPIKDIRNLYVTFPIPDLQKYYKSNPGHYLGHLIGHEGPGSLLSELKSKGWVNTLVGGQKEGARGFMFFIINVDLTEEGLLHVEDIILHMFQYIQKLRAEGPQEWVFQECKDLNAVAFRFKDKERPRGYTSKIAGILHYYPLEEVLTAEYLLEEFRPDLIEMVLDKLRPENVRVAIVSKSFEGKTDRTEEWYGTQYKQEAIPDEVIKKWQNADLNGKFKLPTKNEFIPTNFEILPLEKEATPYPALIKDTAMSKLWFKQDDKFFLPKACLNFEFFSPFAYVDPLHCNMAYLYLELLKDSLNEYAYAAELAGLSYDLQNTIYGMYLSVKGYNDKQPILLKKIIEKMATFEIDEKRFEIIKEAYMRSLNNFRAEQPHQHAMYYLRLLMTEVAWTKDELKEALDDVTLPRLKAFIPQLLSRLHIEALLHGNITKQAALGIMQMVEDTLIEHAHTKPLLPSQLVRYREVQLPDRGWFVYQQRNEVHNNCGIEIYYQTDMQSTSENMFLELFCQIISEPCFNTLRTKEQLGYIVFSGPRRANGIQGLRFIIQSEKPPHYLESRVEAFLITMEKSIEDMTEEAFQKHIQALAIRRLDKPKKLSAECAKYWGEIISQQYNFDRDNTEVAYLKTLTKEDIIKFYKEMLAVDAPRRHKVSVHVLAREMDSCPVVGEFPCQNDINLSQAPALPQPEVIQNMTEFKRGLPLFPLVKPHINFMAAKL

[5] = target: T3, Small ubiquitin-related modifier 1 (Homo sapiens, UniProt P63165); experiment: inhibitors of SUMO1 peptide binding, dose response, biochemical, fluorescence polarization, uHTS hits (AID 624382); assay type: functional; conditions: read-out: IC50_Mean
T3 sequence (P63165 whole entry): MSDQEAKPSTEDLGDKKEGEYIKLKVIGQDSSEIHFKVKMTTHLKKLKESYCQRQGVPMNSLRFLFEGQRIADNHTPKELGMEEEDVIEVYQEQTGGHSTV

[6] = target: Intestinal-type alkaline phosphatase (Mus musculus, UniProt P24822); experiment: PubChem AID 488785; assay type: functional
Chain of Intestinal-type alkaline phosphatase (P24822 whole entry): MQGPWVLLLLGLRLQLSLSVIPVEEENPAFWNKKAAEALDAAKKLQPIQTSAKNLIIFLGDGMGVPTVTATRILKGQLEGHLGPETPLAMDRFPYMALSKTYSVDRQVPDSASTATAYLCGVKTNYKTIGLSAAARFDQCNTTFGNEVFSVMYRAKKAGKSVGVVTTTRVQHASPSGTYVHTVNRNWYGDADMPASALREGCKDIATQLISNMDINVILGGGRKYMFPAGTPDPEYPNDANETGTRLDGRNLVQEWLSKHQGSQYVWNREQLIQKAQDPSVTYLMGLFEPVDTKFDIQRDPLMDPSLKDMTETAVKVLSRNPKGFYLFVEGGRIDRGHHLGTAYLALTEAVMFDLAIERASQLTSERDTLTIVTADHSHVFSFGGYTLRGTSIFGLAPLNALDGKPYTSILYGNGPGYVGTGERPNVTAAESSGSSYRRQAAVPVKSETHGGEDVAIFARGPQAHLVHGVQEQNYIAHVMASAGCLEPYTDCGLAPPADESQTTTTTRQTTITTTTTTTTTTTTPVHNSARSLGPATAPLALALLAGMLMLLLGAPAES

[7] = target: T3, Small ubiquitin-related modifier 1; experiment: inhibitors of SUMO1 partner interactions, dose response, biochemical, FRET (AID 624383); assay type: functional; conditions: read-out: IC50_Mean
[8] = target: T1, Ubiquitin-conjugating enzyme E2 N; assay type: functional; remark: listed apart in the source
[9] = target: T2, Insulin-degrading enzyme; experiment: activators of endogenous IDE in HEK cells, dose response, cell-based, fluorescence polarization (AID 588439); assay type: functional
[10] = target: T4, Apoptotic protease-activating factor 1 (Homo sapiens, UniProt O14727); assay type: functional
T4 sequence (O14727 whole entry): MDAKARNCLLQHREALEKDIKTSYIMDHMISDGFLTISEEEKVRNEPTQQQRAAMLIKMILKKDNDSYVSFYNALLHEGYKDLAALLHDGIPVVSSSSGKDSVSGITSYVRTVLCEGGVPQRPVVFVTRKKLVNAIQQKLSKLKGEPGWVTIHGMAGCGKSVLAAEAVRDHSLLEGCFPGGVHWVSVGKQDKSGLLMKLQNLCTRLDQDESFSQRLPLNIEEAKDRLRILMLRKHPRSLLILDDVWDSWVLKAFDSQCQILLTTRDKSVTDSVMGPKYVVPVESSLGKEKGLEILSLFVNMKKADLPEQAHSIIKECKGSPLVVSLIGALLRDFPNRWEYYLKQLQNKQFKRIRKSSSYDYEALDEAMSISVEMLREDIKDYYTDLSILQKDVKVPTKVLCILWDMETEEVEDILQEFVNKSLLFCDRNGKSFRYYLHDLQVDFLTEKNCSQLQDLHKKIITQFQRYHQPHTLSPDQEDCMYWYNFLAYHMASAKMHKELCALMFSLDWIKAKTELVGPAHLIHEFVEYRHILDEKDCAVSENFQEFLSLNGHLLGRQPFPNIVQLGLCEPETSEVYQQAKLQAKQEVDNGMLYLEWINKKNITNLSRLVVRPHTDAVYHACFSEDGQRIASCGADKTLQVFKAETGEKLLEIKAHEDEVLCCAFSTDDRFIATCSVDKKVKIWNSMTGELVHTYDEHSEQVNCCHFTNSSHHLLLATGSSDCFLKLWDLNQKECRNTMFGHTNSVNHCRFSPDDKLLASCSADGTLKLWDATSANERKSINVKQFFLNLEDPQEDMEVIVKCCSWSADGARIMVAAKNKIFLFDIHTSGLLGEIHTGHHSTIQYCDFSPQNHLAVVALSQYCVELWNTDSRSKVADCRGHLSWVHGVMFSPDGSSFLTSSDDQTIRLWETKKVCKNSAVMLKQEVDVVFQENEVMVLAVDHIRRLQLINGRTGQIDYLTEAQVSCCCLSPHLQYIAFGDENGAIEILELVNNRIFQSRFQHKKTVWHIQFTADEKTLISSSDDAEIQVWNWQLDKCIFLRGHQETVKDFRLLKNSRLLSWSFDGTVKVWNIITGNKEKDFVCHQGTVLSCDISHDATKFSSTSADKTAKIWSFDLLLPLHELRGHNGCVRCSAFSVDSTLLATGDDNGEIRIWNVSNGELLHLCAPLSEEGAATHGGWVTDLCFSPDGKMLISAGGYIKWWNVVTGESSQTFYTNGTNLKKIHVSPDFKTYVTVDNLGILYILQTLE

For `Clc1ccc(C(c2ccc(Cl)cc2)n2cc[n+](CC(OCc3ccc(Cl)cc3Cl)c3ccc(Cl)cc3Cl)c2)cc1` (stereo not given) [CALMIDAZOLIUM CHLORIDE], the AC50 [1] was 7.07 µM (active), the IC50 [2] was 5.6 µM (active) and the EC50 [3] was > 92.5 µM (inactive). The EC50 [4] was > 54.7 µM (inactive), the IC50 [5] was > 66.6 µM (inactive) and the IC50 [6] was 14.6 µM (active). The IC50 [7] was 5.89 µM (active), the IC50 [8] was 10.9 µM (active) and the EC50 [9] was > 2.03 µM (active). For the same molecule, the IC50 [10] was 12.7 µM (active).
